These results are taken from patent publication US10329334B2 (SANOFI, priority 2015, dated 2019).

In test [1] the target is T1, human lipocalin 2 (hNGAL) mutein SEQ ID NO: 35 (Homo sapiens, UniProt P80188, A60T/C107S/D97H/K145I/K154W/K93R/L123T/L56V/L90R/N85Q/Q48H/Q69G/R101D/R92I/S147R/S88D/T74A/W99Y/Y126Q/Y152I/Y72N).
T1 construct: made in house; host or cells: E. coli
Briefly: SPR (Biacore T200), mutein SEQ ID NO: 35. In kind it is binding.
Procedure: (§6) In a Surface Plasmon Resonance (SPR) based assay a Biacore T200 instrument (GE Healthcare) was used to measure the binding affinity of muteins to pyoverdine I succinyl, -succinamid, -α-ketoglutaryl with complexed iron ion or to pyoverdine II succinyl, -succinamid, -α-ketoglutaryl with complexed iron ion or to pyoverdine III succinyl, -succinamid, -α-ketoglutaryl with complexed iron ion. Muteins selected for binding to pyoverdines and negative control (SEQ ID NO: 64) were biotinylated for 2 h at room temperature applying an appropriate excess of EZ-Link NHS-PEG4-Biotin (Thermo, Cat#21329) followed by separation of non-reacted Biotin using a Zeba Spin Desalting Plate (Thermo, Cat#21329) according to the manufactures instructions.
(§7) Applying a flow rate of 30 μl/min, a single cycle or multi cycle kinetics approach was used with a sample contact time of 120-180 s and a dissociation time of 900-2400 s. […] After ligand immobilization, for analysis using single cycle kinetics all 4-5 concentrations of Pvd were applied consecutively in ascending order before the dissociation was monitored. For analysis using multi cycle kinetics 4 dilutions of Pvd were applied, each followed a dissociation phase. All measurements were performed at 25° C. […] Data were evaluated with Biacore T200 Evaluation software (V 1.0). Double referencing was used. A 1:1 Binding model was used to fit the raw data.

In test [2] the target is natural wild-type hNGAL (human lipocalin 2) (Homo sapiens, UniProt P80188). Conditions: Peek et al. 2012; cited from earlier work.
Test [3] addresses T2, human lipocalin 2 (hNGAL) mutein SEQ ID NO: 53 (Homo sapiens, UniProt P80188, A60L/C107S/D97K/I61A/K154W/K93H/L123Q/L56E/L62R/L90R/N116L/N85D/Q69M/R101V/S125P/S147V/S88E/W99D/Y120D/Y126E/Y72M).
T2 construct: made in house; host or cells: E. coli
Briefly: SPR (Biacore T200), mutein SEQ ID NO: 53. It is filed as binding. The following applies: 25° C. How it is done: (§1) In a Surface Plasmon Resonance (SPR) based assay a Biacore T200 instrument (GE Healthcare) was used to measure the binding affinity of muteins to pyoverdine I succinyl, -succinamid, -α-ketoglutaryl with complexed iron ion or to pyoverdine II succinyl, -succinamid, -α-ketoglutaryl with complexed iron ion or to pyoverdine III succinyl, -succinamid, -α-ketoglutaryl with complexed iron ion. Muteins selected for binding to pyoverdines and negative control (SEQ ID NO: 64) were biotinylated for 2 h at room temperature applying an appropriate excess of EZ-Link NHS-PEG4-Biotin (Thermo, […]) followed by separation of non-reacted Biotin using a Zeba Spin Desalting Plate (Thermo, […]) according to the manufactures instructions.
In the SPR affinity assay, biotinylated muteins and negative control were captured on a sensor chip CAP using the Biotin CAPture Kit (GE Healthcare): Sensor Chip CAP is pre-immobilized with an ssDNA oligo. […]
(§2) Applying a flow rate of 30 μl/min, a single cycle or multi cycle kinetics approach was used with a sample contact time of 120-180 s and a dissociation time of 900-2400 s. […] After ligand immobilization, for analysis using single cycle kinetics all 4-5 concentrations of Pvd were applied consecutively in ascending order before the dissociation was monitored. […] Data were evaluated with Biacore T200 Evaluation software (V 1.0). […]

For test [4], the target named is T3, human lipocalin 2 (hNGAL) mutein SEQ ID NO: 33 (Homo sapiens, UniProt P80188, A60E/C107S/D97N/E64D/I61V/K145N/K154W/K93N/L123V/L56V/L90R/N116K/N85Q/Q48H/Q69G/R101E/R92H/S147K/S88E/W99F/Y120N/Y126M/Y152G/Y72P).
T3 construct: made in house; host or cells: E. coli
Briefly: SPR (Biacore T200), mutein SEQ ID NO: 33. In kind it is binding. The following applies: 25° C.
Procedure: as §6, §7

In test [5] the target is T4, human lipocalin 2 (hNGAL) mutein SEQ ID NO: 36 (Homo sapiens, UniProt P80188, A60T/C107S/D97H/K145I/K154W/K93R/L123T/L56V/L90R/N85D/Q69G/R101D/R92I/S147R/S88D/T74A/W99Y/Y126Q/Y152I/Y72N).
T4 construct: made in house; host or cells: E. coli
The experiment in a line: SPR (Biacore T200), mutein SEQ ID NO: 36. In kind it is binding. Conditions: 25° C.
Procedure: as §6

Test [6] concerns the target T5, human lipocalin 2 (hNGAL) mutein SEQ ID NO: 9 (Homo sapiens, UniProt P80188, A60T/C107S/D97I/I61T/K145Y/K154N/K93D/L123D/L56W/L90Q/N116G/Q48H/Q69P/R101I/R92P/S147V/S88D/W99S/Y120N/Y126H/Y152G/Y72P).
T5 construct: made in house; host or cells: E. coli
Briefly: SPR (Biacore T200), mutein SEQ ID NO: 9. It is filed as binding. Conditions: 25° C.
Procedure: as §6

The target of test [7] is T6, human lipocalin 2 (hNGAL) mutein SEQ ID NO: 32 (Homo sapiens, UniProt P80188, A60E/C107S/D97N/E64D/I61V/K145N/K154W/K93N/L123V/L56V/L90R/N116K/N85D/Q48H/Q69G/R101E/R92H/S147K/S88E/W99F/Y120N/Y126M/Y152G/Y72P).
T6 construct: made in house; host or cells: E. coli
The experiment in a line: SPR (Biacore T200), mutein SEQ ID NO: 32. In kind it is binding. The following applies: 25° C.
Procedure: as §6, §7

For test [8], the target named is T7, human lipocalin 2 (hNGAL) mutein SEQ ID NO: 11 (Homo sapiens, UniProt P80188, A60T/C107S/D97V/I61T/K145Y/K154N/K93D/L123N/L56W/L90Q/N116G/Q48H/Q69P/R101I/R92P/S147V/S88D/W99S/Y120N/Y126H/Y152G/Y72P).
T7 construct: made in house; host or cells: E. coli
Briefly: SPR (Biacore T200), mutein SEQ ID NO: 11. In kind it is binding. The following applies: 25° C.
Procedure: as §6

The target of test [9] is T8, human lipocalin 2 (hNGAL) mutein SEQ ID NO: 16 (Homo sapiens, UniProt P80188, A60T/C107S/D97I/I100T/I61A/K145Y/K154N/K93E/K95E/L123Q/L56W/L90Q/N116G/N85D/Q69P/R101I/R92P/S147T/S88D/T156A/T74V/W99S/Y120S/Y126H/Y152G/Y72P).
T8 construct: made in house; host or cells: E. coli
Briefly: SPR (Biacore T200), mutein SEQ ID NO: 16. It is filed as binding. Conditions: 25° C.
Procedure: as §6

Test [10] deals with T9, human lipocalin 2 (hNGAL) mutein SEQ ID NO: 10 (Homo sapiens, UniProt P80188, A60T/C107S/D97T/I61T/K145Y/K154N/K93E/L123E/L56W/L90Q/N116D/Q48H/Q69P/R101I/R92P/S147D/S88D/V131M/W99S/Y120N/Y126H/Y152G/Y72P).
T9 construct: made in house; host or cells: E. coli
Briefly: SPR (Biacore T200), mutein SEQ ID NO: 10. The following applies: 25° C. In kind it is binding.
Procedure: as §6

Test [11] concerns the target T10, human lipocalin 2 (hNGAL) mutein SEQ ID NO: 8 (Homo sapiens, UniProt P80188, A60T/C107S/D97I/I100T/I61T/K145Y/K154N/K93E/L123Q/L56W/L90Q/N116G/Q48H/Q69P/R101I/R92P/S147I/S88D/W99S/Y120S/Y126H/Y152G/Y72P).
T10 construct: made in house; host or cells: E. coli
Briefly: SPR (Biacore T200), mutein SEQ ID NO: 8. It is filed as binding. Conditions: 25° C.
Procedure: as §6

Test [12] addresses T11, human lipocalin 2 (hNGAL) mutein SEQ ID NO: 13 (Homo sapiens, UniProt P80188, A60T/C107S/D97I/I100T/I61T/K145Y/K154N/K93E/K95E/L123Q/L56W/L90Q/N116G/Q48H/Q69P/R101I/R92P/S147T/S88D/T74V/W99S/Y120S/Y126H/Y152G/Y72P).
T11 construct: made in house; host or cells: E. coli
The experiment in a line: SPR (Biacore T200), mutein SEQ ID NO: 13. In kind it is binding. The following applies: 25° C.
Procedure: as §6

The target in test [13] is T12, human lipocalin 2 (hNGAL) muteins from affinity optimization of SEQ ID NO: 56 (Homo sapiens, UniProt P80188).
T12 construct: C-terminal SA linker and Strep-tag II; E. coli
Briefly: Solution binding ELISA, muteins from affinity optimization of SEQ ID NO: 56. On the procedure:
(§3) Solution binding of muteins was assayed by a “Solution binding ELISA”, the principle of which was as follows: a constant concentration of the tested mutein was incubated with variable concentrations of ligands (Pvd I s, sa, aKG+/−Fe/Pvd II s, sa, aKG+/−Fe/Pvd III s, sa, aKG+/−Fe/Pch+/−Fe) for 1 h. After this pre-incubation in solution, an aliquot of the mutein/ligand mixture was transferred to an ELISA plate with biotinalyted Pvd I s (+Fe), Pvd II s (+Fe), Pvd III s (+Fe) or Pch immobilized via Neutravidin to measure the remaining concentration of free muteins. The concentration of free (non ligand-bound) muteins was determined via a quantitative ELISA setup.
(§4) In detail, a 384-well plate suitable for fluorescence measurements (Greiner FLUOTRAC™ 600, black flat bottom, high-binding) was coated with 20 μl of Neutravidin at a concentration of 5 μg/ml in PBS over night at 4 C. […]
(§5) The residual supernatants were discarded and 20 μl HRP-labeled anti-hNGAL antibody was added at a predetermined optimal concentration in PBS-T/BSA and incubated for 1 h at RT. […] The fluorescence intensity of every well on the plate was read using a fluorescence microplate reader (Tecan or Molecular Devices). To evaluate the data, free mutein concentration, c(mutein)free, was calculated based on the standard curve results, and plotted versus ligand concentration, c(Ligand). […]

Test [14] concerns the target negative control lipocalin SEQ ID NO: 64 (Homo sapiens, UniProt P80188, C107S/Q48H). The experiment in a line: SPR (Biacore T200), negative control SEQ ID NO: 64. The following applies: 200 nM. It is filed as binding. On the procedure: as §1
In the SPR affinity assay, biotinylated muteins and negative control were captured on a sensor chip CAP using the Biotin CAPture Kit (GE Healthcare): Sensor Chip CAP is pre-immobilized with an ssDNA oligo. Undiluted Biotin CAPture Reagent (streptavidin conjugated with the complementary ss-DNA oligo) was applied at a flow rate of 2 μl/min for 300 s. Subsequently, 1 μg/ml to 100 μg/mL of biotinylated muteins or negative control were applied for 300 s at a flow rate of 5 μl/min. The reference channel was loaded with Biotin CAPture Reagent only.
as §2, with “monitored. For analysis using multi cycle kinetics 4 dilutions of Pvd were applied, each followed a dissociation phase. All measurements were performed at 25° C.” for “monitored.”, “1.0). Double referencing was used. A 1:1 Binding model was used to fit the raw data.” for “1.0).”

The target of test [15] is T13, human lipocalin 2 (hNGAL) mutein SEQ ID NO: 57 (Homo sapiens, UniProt P80188, A60Y/C107S/D97R/I61W/K145L/K154N/K93R/L123Q/L56V/L90R/N116P/Q48H/Q69A/R101W/R92W/S147R/S88D/W99D/Y120E/Y126R/Y152A).
T13 construct: made in house; host or cells: E. coli
The experiment in a line: Solution binding ELISA, mutein SEQ ID NO: 57.
Procedure: (§8) In detail, a 384-well plate suitable for fluorescence measurements (Greiner FLUOTRAC™ 600, black flat bottom, high-binding) was coated with 20 μl of Neutravidin at a concentration of 5 μg/ml in PBS over night at 4 C. After washing, the Neutravidin-coated wells were blocked with 100 μl blocking buffer containing 0.1% Tween 20 and 2% BSA (PBS-T/BSA) for 1 h at room temperature.
(§9) The residual supernatants were discarded and 20 μl HRP-labeled anti-hNGAL antibody was added at a predetermined optimal concentration in PBS-T/BSA and incubated for 1 h at RT. […] After washing, 20 μl fluorogenic HRP substrate (QuantaBlu, Thermo) was added to each well, and the reaction was allowed to proceed for 15 to 60 minutes. The fluorescence intensity of every well on the plate was read using a fluorescence microplate reader (Tecan or Molecular Devices). […] Curve fitting was performed using GraphPad Prism 4 software.

Test [16] concerns the target T14, human lipocalin 2 (hNGAL) mutein SEQ ID NO: 56 (Homo sapiens, UniProt P80188, A60F/C107S/D97A/I61H/K145G/K154V/K93A/L123M/L56M/L90P/N116A/Q48H/Q69S/R101I/R92W/S147W/S88H/W99K/Y120G/Y126W/Y152T/Y72P).
T14 construct: made in house; host or cells: E. coli
The experiment in a line: Solution binding ELISA, mutein SEQ ID NO: 56.
Procedure: as §8, §9

The target in test [17] is T15, human lipocalin 2 (hNGAL) muteins from affinity optimization of SEQ ID NO: 55 (Homo sapiens, UniProt P80188).
T15 construct: C-terminal SA linker and Strep-tag II; E. coli
Briefly: Solution binding ELISA, muteins from affinity optimization of SEQ ID NO: 55. On the procedure: as §3, §4, §5

T14 sequence (P80188 21-198 with the stated changes): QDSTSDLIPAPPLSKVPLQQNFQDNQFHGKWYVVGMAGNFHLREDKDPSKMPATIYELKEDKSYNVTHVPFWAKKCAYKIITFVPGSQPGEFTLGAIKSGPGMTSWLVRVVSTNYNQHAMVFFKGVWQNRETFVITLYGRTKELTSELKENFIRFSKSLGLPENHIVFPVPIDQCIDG
T13 sequence (P80188 21-198 with the stated changes): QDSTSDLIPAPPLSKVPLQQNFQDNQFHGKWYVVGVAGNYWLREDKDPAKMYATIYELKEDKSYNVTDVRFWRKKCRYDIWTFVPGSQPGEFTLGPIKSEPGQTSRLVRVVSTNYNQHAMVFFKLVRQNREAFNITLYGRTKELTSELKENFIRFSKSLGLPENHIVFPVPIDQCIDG
Chain of natural wild-type hNGAL (human lipocalin 2) (P80188 21-198): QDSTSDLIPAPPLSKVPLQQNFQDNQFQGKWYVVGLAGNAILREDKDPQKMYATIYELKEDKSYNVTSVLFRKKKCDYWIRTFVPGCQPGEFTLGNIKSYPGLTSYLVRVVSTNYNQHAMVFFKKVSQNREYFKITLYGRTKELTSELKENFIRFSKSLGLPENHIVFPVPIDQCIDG
T15 sequence (P80188 21-198, stated change not applied): as the sequence (P80188 21-198) above
T1 sequence (P80188 21-198 with the stated changes): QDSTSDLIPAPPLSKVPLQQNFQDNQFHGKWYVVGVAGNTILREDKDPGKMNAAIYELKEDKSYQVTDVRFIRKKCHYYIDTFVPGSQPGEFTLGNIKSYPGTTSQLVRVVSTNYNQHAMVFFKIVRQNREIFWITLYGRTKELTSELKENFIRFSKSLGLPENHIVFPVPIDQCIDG
T4 sequence (P80188 21-198 with the stated changes): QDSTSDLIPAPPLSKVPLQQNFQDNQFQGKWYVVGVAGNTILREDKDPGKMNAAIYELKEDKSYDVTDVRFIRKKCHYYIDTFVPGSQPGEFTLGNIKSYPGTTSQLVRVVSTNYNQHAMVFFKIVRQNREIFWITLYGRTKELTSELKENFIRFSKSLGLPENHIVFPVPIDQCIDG
T11 sequence (P80188 21-198 with the stated changes): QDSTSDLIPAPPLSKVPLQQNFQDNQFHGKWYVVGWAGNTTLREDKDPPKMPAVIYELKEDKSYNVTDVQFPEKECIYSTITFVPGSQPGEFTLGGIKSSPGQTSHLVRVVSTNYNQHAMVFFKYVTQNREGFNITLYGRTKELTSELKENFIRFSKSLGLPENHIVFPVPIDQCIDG
T9 sequence (P80188 other isoform, or with tags, fused parts or gaps with the stated changes): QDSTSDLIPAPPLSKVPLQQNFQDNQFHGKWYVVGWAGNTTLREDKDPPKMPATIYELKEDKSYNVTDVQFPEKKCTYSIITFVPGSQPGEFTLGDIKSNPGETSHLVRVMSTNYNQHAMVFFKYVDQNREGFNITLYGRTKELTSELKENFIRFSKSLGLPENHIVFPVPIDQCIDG
T6 sequence (P80188 21-198 with the stated changes): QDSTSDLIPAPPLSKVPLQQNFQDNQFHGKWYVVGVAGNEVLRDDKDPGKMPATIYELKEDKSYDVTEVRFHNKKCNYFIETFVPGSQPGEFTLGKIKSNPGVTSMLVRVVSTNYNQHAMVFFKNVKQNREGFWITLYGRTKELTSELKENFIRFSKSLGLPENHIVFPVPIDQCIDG
T12 sequence (P80188 21-198, stated change not applied): as the sequence (P80188 21-198) above
T8 sequence (P80188 21-198 with the stated changes): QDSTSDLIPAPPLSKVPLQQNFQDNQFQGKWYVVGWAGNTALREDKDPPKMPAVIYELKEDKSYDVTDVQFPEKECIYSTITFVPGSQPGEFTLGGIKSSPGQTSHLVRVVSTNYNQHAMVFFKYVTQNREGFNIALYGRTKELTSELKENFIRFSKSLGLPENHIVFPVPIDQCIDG
T5 sequence (P80188 other isoform, or with tags, fused parts or gaps with the stated changes): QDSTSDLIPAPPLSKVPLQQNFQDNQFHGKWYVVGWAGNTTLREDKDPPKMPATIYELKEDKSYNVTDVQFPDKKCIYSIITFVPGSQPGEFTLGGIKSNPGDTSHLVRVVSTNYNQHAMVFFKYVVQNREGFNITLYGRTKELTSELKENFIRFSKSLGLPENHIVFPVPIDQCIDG
Chain of negative control lipocalin SEQ ID NO: 64 (P80188 21-198 Q48H/C107S): as the sequence (P80188 21-198) above, with Q28H, C87S counted along it
T10 sequence (P80188 other isoform, or with tags, fused parts or gaps with the stated changes): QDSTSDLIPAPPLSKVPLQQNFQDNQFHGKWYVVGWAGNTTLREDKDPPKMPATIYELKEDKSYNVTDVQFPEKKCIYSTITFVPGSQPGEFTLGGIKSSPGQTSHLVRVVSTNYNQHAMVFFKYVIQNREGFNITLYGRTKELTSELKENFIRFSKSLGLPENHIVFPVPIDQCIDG
T3 sequence (P80188 21-198 with the stated changes): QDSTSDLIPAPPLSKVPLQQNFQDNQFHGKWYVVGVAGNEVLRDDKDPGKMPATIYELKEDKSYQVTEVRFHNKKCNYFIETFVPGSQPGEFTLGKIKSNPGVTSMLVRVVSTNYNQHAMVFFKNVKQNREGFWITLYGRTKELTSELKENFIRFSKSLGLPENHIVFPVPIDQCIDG
T7 sequence (P80188 21-198 with the stated changes): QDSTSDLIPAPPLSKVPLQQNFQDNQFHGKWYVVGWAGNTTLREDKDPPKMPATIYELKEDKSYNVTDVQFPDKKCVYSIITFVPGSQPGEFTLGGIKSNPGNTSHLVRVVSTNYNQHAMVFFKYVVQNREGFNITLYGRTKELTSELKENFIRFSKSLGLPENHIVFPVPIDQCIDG
T2 sequence (P80188 21-198 with the stated changes): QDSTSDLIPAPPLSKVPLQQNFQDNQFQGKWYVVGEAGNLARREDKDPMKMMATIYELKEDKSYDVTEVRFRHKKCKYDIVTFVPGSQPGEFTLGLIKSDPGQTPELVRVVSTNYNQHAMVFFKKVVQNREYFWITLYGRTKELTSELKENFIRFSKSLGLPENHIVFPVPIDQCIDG

On to `O=C(N[C@H]1COC(=O)[C@@H](NC(=O)c2cccc(O)c2O)COC(=O)[C@@H](NC(=O)c2cccc(O)c2O)COC1=O)c1cccc(O)c1O` [Enterobactin, enterobactin, reference compound], for which, in test [1] (2 μM for all analytes), the “specificity and crossreactivity (binding)” value was “absence of binding”. Besides, the “binding to wild-type hNGAL” value in [2] was “high affinity”.

Consider `O=C(N[C@H]1COC(=O)[C@@H](NC(=O)c2cccc(O)c2O)COC(=O)[C@@H](NC(=O)c2cccc(O)c2O)COC1=O)c1cccc(O)c1O.[Fe+3]` [Fe-Enterobactin, enterobactin], for which the KD result in test [3], in test [4], in test [5], in test [6], in test [7] and in [8] was “no bdg” each time. Moreover, the KD entry in test [9], in [10], in test [1] (25° C.), in [11] and in [12] was “no bdg” each time.

For the compound `CN1C([C@H]2CSC(c3ccccc3O)=N2)SC[C@H]1C(=O)O.[Fe+3]` (stereo partly shown) [pch (+Fe), pyochelin], the “affinity (in words)” value is on record as “no or weak affinity” in test [13], “two- to three digit nM affinity” in test [15], “two- to three digit nM affinity” in test [16] and “single digit nM affinity” in test [17] (solution binding ELISA). For the same compound, the “absence of binding to negative control” value in test [14] is “absence of binding”.

In the case of `CN1C([C@H]2CSC(c3ccccc3O)=N2)SC[C@H]1C(=O)O` (stereo partly shown) [pch (−Fe), pyochelin], the “affinity (in words)” value in test [15] and in [16] was “weak affinity or not at all” in each case. For the same compound, in test [17] (versus SEQ ID NO: 55), the improved affinity result is listed as “more than 75 fold”.

For Pyoverdine, in test [2], the “binding to wild-type hNGAL” value is reported as “did not bind”.
